Counter-ions that a name gives are not always drawn.
In the case of `CCc1nc2c(N)nc3cc(-c4ccncc4)ccc3c2n1CC(C)(C)O` [Example 143, 1-[4-Amino-2-ethyl-7-(pyridin-4-yl)-1H-imidazo[4,5-c]quinolin-1-yl]-2-methylpropan-2-ol], the melting point is reported as over 250 °C. For `COCc1nc2c(N)nc3cc(-c4cncc(OC)c4)ccc3c2n1CC(C)(C)O` [Example 400, 1-[4-Amino-2-methoxymethyl-7-(5-methoxypyridin-3-yl)-1H-imidazo[4,5-c]quinolin-1-yl]-2-methylpropan-2-ol], the melting point was 234 to 236 °C. For `CCOCc1nc2c(N)nc3cc(-c4cccnc4)ccc3c2n1CCCCCS(=O)(=O)NC` [Example 371, Methyl 5-[4-amino-2-ethoxymethyl-7-(pyridin-3-yl)-1H-imidazo[4,5-c]quinolin-1-yl]pentane-1-sulfonamide], the melting point was 191 to 192 °C. `COCCc1nc2c(N)nc3ccc(-c4cccc(C(C)=O)c4)cc3c2n1CCCN1CCCC1=O` (hydrate or solvate) [Example 189, 1-{3-[8-(3-Acetylphenyl)-4-amino-2-(2-methoxyethyl)-1H-imidazo[4,5-c]quinolin-1-yl]propyl}pyrrolidin-2-one] gave a melting point of 164 to 167 °C. Molecule `CCOCc1nc2c(N)nc3cc(-c4cccnc4)ccc3c2n1CCCCNC(=O)OC(C)(C)C` [Example 157, tert-Butyl {4-[4-amino-2-ethoxymethyl-7-(pyridin-3-yl)-1H-imidazo[4,5-c]quinolin-1-yl]butyl}carbamate] has a melting point of 117 to 119 °C. In the case of `CCOCc1nc2c(N)nc3cc(-c4cccnc4)ccc3c2n1CCN1CCN(C(=O)C(C)C)CC1` (hydrate or solvate) [Example 416, 1-(4-{2-[4-Amino-2-ethoxymethyl-7-(pyridin-3-yl)-1H-imidazo[4,5-c]quinolin-1-yl]ethyl}piperazin-1-yl)-2-methylpropan-1-one], the melting point is reported as 190 to 192 °C. `CCOCc1nc2c(N)nc3cc(-c4ccc(N(C)C)cc4)ccc3c2n1CC(C)C` [Example 114, 7-(4-Dimethylaminophenyl)-2-ethoxymethyl-1-(2-methylpropyl)-1H-imidazo[4,5-c]quinolin-4-amine] showed a melting point of 214.5 to 215.5 °C. In the case of `Cc1ccc(-c2ccc3nc(N)c4ncn(CC(C)C)c4c3c2)cc1C` [Example 119, 8-(3,4-Dimethylphenyl)-1-(2-methylpropyl)-1H-imidazo[4,5-c]quinolin-4-amine], the melting point is reported as 204 to 205 °C. `CCOCc1nc2c(N)nc3cc(-c4cccnc4)ccc3c2n1CC1CCN(C(=O)OC(C)(C)C)CC1` [Example 176, tert-Butyl 4-{[4-amino-2-ethoxymethyl-7-(pyridin-3-yl)-1H-imidazo[4,5-c]quinolin-1-yl]methyl}piperidine-1-carboxylate] showed a melting point of 197 to 198 °C. `CCCc1nc2c(N)nc3cc(-c4cccnc4)ccc3c2n1CC1CCN(C(=O)C(C)C)CC1` [Example 412, 1-{4-[4-Amino-2-propyl-7-(pyridin-3-yl)-1H-imidazo[4,5-c]quinolin-1-ylmethyl]piperidin-1-yl}-2-methylpropan-1-one] gave a melting point of 248 to 249 °C. `CCOCc1nc2c(N)nc3cc(-c4cccnc4)ccc3c2n1CC1CCN(S(C)(=O)=O)CC1` (as salt: HCl) [Example 178, 2-Ethoxymethyl-1-{[1-(methanesulfonyl)piperidin-4-yl]methyl}-7-(pyridin-3-yl)-1H-imidazo[4,5-c]quinolin-4-amine] gave a melting point of 254 to 255 °C. For `CCOCc1nc2c(N)nc3cc(-c4ccccc4)ccc3c2n1CC1CCN(C(=O)OC(C)(C)C)CC1` [Example 191, tert-Butyl 4-[(4-amino-2-ethoxymethyl-7-phenyl-1H-imidazo[4,5-c]quinolin-1-yl)methyl]piperidine-1-carboxylate], the melting point was 194 to 195 °C. Work on `CCOCc1nc2c(N)nc3cc(-c4cccnc4)ccc3c2n1CC(C)(C)OCCS(C)(=O)=O` [Example 363, 2-Ethoxymethyl-1-{2-[2-(methanesulfonyl)ethoxy]-2-methylpropyl}-7-(pyridin-3-yl)-1H-imidazo[4,5-c]quinolin-4-amine] yielded a melting point of 202 to 204 °C. `CCCCc1nc2c(N)nc3cc(-c4ccccc4)ccc3c2n1CC(C)C` [Example 2, 2-Butyl-1-isobutyl-7-phenyl-1H-imidazo[4,5-c]quinolin-4-amine] showed a melting point of over 250 °C. For `CCOCc1nc2c(N)nc3cc(-c4cccnc4)ccc3c2n1CC(O)CO` (stereo not shown) [Example 162, 3-[4-Amino-2-ethoxymethyl-7-(pyridin-3-yl)-1H-imidazo[4,5-c]quinolin-1-yl]propane-1,2-diol], the melting point was 218 to 220 °C. Molecule `CCOCc1nc2c(N)nc3cc(CCc4ccc(C(F)(F)F)cc4)ccc3c2n1CC(C)C` [Example 117, 2-Ethoxymethyl-1-(2-methylpropyl)-7-{2-[(trifluoromethyl)phenyl]ethyl}-1H-imidazo[4,5-c]quinolin-4-amine] has a melting point of 175.5 to 178 °C. Molecule `CCCCCCC1(CCCCCC)c2cc(-c3ccc4c(c3)nc(N)c3nc(CCOC)n(CCCN5CCCC5=O)c34)ccc2-c2ccc(-c3ccc4c(c3)nc(N)c3nc(CCOC)n(CCCN5CCCC5=O)c34)cc21` [Example 476, 1-[4-Amino-7-(7-{4-amino-2-(2-methoxyethyl)-1-[3-(pyrrolidin-2-one)propyl]-1H-imidazo[[4,5-c]quinolin-7-yl}-9,9-dihexyl-9H-fluoren-2-yl)-2-(2-methoxyethyl)-1H-imidazo[4,5-c]quinolin-1-yl]propyl}pyrrolidin-2-one] has a melting point of 251 to 254 °C. Molecule `COCCc1nc2c(N)nc3ccc(-c4ccccc4)cc3c2n1CCCN1CCCC1=O` (hydrate or solvate) [Example 187, 1-{3-[4-Amino-2-(2-methoxyethyl)-8-phenyl-1H-imidazo[4,5-c]quinolin-1-yl]propyl}pyrrolidin-2-one] has a melting point of 207 to 210 °C. `COCCc1nc2c(N)nc3cc(-c4ccccc4)ccc3c2n1CCCCNS(C)(=O)=O` [Example 199, N-{4-[4-Amino-2-(2-methoxyethyl)-7-phenyl-1H-imidazo[4,5-c]quinolin-1-yl]butyl}methanesulfonamide] gave a melting point of 201 to 202 °C. `CCCc1nc2c(N)nc3cc(/C=C/c4ccc(OC)cc4)ccc3c2n1CC(C)C` [Example 444, (E)-7-[2-(4-Methoxyphenyl)vinyl]-1-(2-methylpropyl)-2-propyl-1H-imidazo[4,5-c]quinolin-4-amine] gave a melting point of 201 to 202 °C. `CCOCc1nc2c(N)nc3cc(-c4ccc(C#N)cc4)ccc3c2n1CC(C)C` [Example 110, 4-(4-Amino-2-ethoxymethyl-1-(2-methylpropyl)-1H-imidazo[4,5-c]quinolin-7-yl)benzonitrile] gave a melting point of 211 to 212 °C. For `CCOCc1nc2c(N)nc3ccc(-c4cccnc4)cc3c2n1CC(C)(C)O` [Example 148, 1-[4-Amino-2-ethoxymethyl-8-(pyridin-3-yl)-1H-imidazo[4,5-c]quinolin-1-yl]-2-methylpropan-2-ol], the melting point was 222 to 223 °C. In the case of `CCOCc1nc2c(N)nc3cc(-c4ccc(CO)cc4)ccc3c2n1CC1COC(C)(C)O1` (stereo not shown) [Example 160, 1-[(2,2-Dimethyl-1,3-dioxolan-4-yl)methyl]-2-ethoxymethyl-7-(4-hydroxymethylphenyl)-1H-imidazo[4,5-c]quinolin-4-amine], the melting point is reported as 219 to 220 °C. In the case of `CCOCc1nc2c(N)nc3cc(-n4ccnc4)ccc3c2n1CCCOC` [Example 473, 2-Ethoxymethyl-7-(imidazol-1-yl)-1-(3-methoxypropyl)-1H-imidazo[4,5-c]quinolin-4-amine], the melting point is reported as 167.5 to 169 °C. With `CCOCc1nc2c(N)nc3c(-c4cccc(C(=O)N5CCOCC5)c4)cccc3c2n1CC(C)(C)O` [Example 486, {3-[4-Amino-2-ethoxymethyl-1-(2-hydroxy-2-methylpropyl)-1H-imidazo[4,5-c]quinolin-6-yl]phenyl}morpholin-4-ylmethanone] the melting point was 164 to 166 °C. For `CCc1nc2c(N)nc3cc(-c4cccnc4)ccc3c2n1CC1CCNCC1` (as salt: hydrochloride) [Example 405, 2-Ethyl-1-(piperidin-4-ylmethyl)-7-(pyridin-3-yl)-1H-imidazo[4,5-c]quinolin-4-amine trihydrochloride], the melting point was over 250 °C. In the case of `CCOCc1nc2c(N)nc3cc(-c4cccnc4)ccc3c2n1CCCCNC(=O)C(C)C` [Example 373, N-{4-[4-Amino-2-ethoxymethyl-7-(pyridin-3-yl)-1H-imidazo[4,5-c]quinolin-1-yl]butyl}-2-methylpropanamide], the melting point is reported as 200 to 202 °C. In the case of `CCc1nc2c(N)nc3cc(-c4cccnc4)ccc3c2n1CC1CCN(C(=O)NC(C)C)CC1` (hydrate or solvate) [Example 408, 4-[4-Amino-2-ethyl-7-(pyridin-3-yl)-1H-imidazo[4,5-c]quinolin-1-ylmethyl]piperidin-1-carboxylic acid isopropylamide], the melting point is reported as 255 to 256 °C. `CCOCc1nc2c(N)nc3cc(-c4cncc(CO)c4)ccc3c2n1CCCCN1CCCS1(=O)=O` [Example 155, (5-{4-Amino-1-[4-(1,1-dioxidoisothiazolidin-2-yl)butyl]-2-ethoxymethyl-1H-imidazo[4,5-c]quinolin-7-yl}pyridin-3-yl)methanol] showed a melting point of 184.5 to 186 °C. For `CCOCc1nc2c(N)nc3cc(-c4cccc(C(=O)N5CCOCC5)c4)ccc3c2n1CC(C)(C)O` [Example 130, {3-[4-Amino-2-ethoxymethyl-1-(2-hydroxy-2-methylpropyl)-1H-imidazo[4,5-c]quinolin-7-yl]phenyl}morpholin-4-ylmethanone], the melting point was 152 to 154 °C. For `CCOCc1nc2c(N)nc3cc(-n4cccn4)ccc3c2n1CCCOC` [Example 472, 2-Ethloxymethyl-1-(3-methoxypropyl)-7-(pyrazol-1-yl)-1H-imidazo[4,5-c]quinolin-4-amine], the melting point was 159 to 160 °C. For `CCOCc1nc2c(N)nc3cc(-c4ccccc4)ccc3c2n1CC(C)(C)O` [Example 131, 1-(4-Amino-2-ethoxymethyl-7-phenyl-1H-imidazo[4,5-c]quinolin-1-yl)-2-methylpropan-2-ol], the melting point was 211 to 212 °C. `CCc1ccc(-c2ccc3nc(N)c4ncn(CC(C)C)c4c3c2)cc1` [Example 118, 8-(4-Ethylphenyl)-1-(2-methylpropyl)-1H-imidazo[4,5-c]quinolin-4-amine] gave a melting point of 238 to 240 °C. Molecule `COc1ccc(-c2ccc3nc(N)c4ncn(CC(C)C)c4c3c2)c(OC)c1` [Example 13, 8-(2,4-Dimethoxyphenyl)-1-isobutyl-1H-imidazo[4,5-c]quinolin-4-amine] has a melting point of 223 to 227 °C.
